Converted amounts (≈) assume the structure as drawn.
Key:
[1] = molecular target: T1, Mitogen-activated protein kinase kinase kinase 8 (Homo sapiens, UniProt P41279); experiment: Inhibitory activity against human Tpl2 kinase via quantification of MEK phosphorylation; format: functional
Target sequence in this assay (P41279 whole entry): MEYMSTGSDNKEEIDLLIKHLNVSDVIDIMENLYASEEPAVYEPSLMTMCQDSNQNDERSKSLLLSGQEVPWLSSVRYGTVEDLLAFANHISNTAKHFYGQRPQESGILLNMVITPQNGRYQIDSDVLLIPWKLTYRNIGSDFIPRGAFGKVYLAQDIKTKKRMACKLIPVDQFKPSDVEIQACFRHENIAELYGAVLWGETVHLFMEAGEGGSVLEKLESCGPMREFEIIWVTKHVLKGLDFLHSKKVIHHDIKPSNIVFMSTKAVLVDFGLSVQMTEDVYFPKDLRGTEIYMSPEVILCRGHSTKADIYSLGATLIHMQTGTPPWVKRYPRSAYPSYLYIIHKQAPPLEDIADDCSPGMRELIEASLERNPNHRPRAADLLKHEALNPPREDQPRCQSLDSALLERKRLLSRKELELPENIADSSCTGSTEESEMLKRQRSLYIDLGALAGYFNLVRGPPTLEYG

Protein kinase C (PKC) = experiment: Inhibitory activity against PKC; format: protein assay
[2] = molecular target: Proto-oncogene tyrosine-protein kinase Src (Homo sapiens, UniProt P12931); experiment: Inhibitory activity against Src
[3] = molecular target: Dual specificity mitogen-activated protein kinase kinase 1 (Homo sapiens, UniProt Q02750); experiment: Inhibitory activity against MEK
[4] = molecular target: MAP kinase-activated protein kinase 2 (Homo sapiens, UniProt P49137); experiment: Inhibitory activity against MK2
[5] = Solubility determined; format: physicochemical
[6] = Plasma binding to human serum albumin; format: ADME; conditions: read-out: PPB (converted)
MAP kinase p38 = MAP kinase p38 (Homo sapiens, UniProt O15264+Q15759+Q16539+P53778); experiment: Inhibitory activity against p38; format: protein assay
[7] = molecular target: T1, Mitogen-activated protein kinase kinase kinase 8; experiment: Inhibition of LPS-induced TNFalpha production in human whole blood
Target sequence in this assay (P41279 whole entry, looked up): as the sequence (P41279 whole entry) above

[8] = molecular target: T1, Mitogen-activated protein kinase kinase kinase 8; experiment: Inhibition of LPS-induced TNFalpha production in primary human monocytes
Target sequence in this assay (P41279 whole entry, looked up): as the sequence (P41279 whole entry) above

Chain of Proto-oncogene tyrosine-protein kinase Src (P12931 2-536 limits assumed): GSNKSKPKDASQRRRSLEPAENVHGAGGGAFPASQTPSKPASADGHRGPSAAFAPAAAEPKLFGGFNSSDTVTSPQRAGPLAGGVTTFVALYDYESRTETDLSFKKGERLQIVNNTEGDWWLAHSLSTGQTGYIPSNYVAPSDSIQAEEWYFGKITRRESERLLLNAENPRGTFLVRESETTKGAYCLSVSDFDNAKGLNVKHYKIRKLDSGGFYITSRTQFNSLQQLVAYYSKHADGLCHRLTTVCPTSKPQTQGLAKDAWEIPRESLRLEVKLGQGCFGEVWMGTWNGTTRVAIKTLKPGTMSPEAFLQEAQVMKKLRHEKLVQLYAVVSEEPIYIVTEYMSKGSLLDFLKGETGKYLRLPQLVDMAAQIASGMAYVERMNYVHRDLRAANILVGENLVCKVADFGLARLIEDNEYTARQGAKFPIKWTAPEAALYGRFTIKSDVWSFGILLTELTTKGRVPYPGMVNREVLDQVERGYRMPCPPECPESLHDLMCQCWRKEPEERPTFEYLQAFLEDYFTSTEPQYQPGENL
Chain of Dual specificity mitogen-activated protein kinase kinase 1 (Q02750 whole entry): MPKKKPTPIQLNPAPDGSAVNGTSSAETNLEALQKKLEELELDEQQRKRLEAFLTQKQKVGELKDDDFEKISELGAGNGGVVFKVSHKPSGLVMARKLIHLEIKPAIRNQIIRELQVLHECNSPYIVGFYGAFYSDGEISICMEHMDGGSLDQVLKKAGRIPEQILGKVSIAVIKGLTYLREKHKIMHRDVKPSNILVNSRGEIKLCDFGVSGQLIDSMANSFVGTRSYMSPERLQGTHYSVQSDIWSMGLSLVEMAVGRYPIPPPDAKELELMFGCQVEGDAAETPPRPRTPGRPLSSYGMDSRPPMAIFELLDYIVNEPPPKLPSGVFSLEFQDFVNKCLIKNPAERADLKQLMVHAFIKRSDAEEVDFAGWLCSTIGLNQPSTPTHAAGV
Chain of MAP kinase-activated protein kinase 2 (P49137 whole entry): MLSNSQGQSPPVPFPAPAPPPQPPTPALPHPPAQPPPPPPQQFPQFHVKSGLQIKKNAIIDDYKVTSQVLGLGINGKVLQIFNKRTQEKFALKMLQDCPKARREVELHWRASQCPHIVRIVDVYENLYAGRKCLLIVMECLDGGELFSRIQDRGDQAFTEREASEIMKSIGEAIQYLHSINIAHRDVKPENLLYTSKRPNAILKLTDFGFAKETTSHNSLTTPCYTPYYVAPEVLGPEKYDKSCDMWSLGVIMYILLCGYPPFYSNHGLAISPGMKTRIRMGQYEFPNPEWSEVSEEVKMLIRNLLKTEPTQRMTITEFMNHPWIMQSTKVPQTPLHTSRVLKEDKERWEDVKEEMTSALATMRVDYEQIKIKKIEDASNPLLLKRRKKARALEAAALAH

Q: With `CC[C@H](Nc1cc2c(Nc3ccc(F)c(Cl)c3)c(C#N)cnc2cn1)c1ccccc1` as the compound, how does the IC50 [1] read?
A: > 40 µM

Q: For `N#Cc1cnc2cnc(NC(CN3CCOCC3)c3ccccc3)cc2c1Nc1ccc(F)c(Cl)c1` (stereo unspecified), which IC50 [1] is on record?
A: 1.8 µM

Q: Which IC50 [1] does the source give for `N#Cc1cnc2cnc(NCCN3CCOCC3)cc2c1Nc1ccc(Cl)cc1` here?
A: > 40 µM

Q: For `N#Cc1cnc2cnc(NCCN3CCOCC3)cc2c1Nc1ccc(Cl)cc1F`, which IC50 [1] is on record?
A: 10 µM

Q: Which IC50 [1] does the source give for `N#Cc1cnc2cnc(NCCN3CCOCC3)cc2c1Nc1ccc(Cl)c(Cl)c1` here?
A: 10 µM

Q: Which results are given for `N#Cc1cnc2cnc(NCCN3CCOCC3)cc2c1Nc1ccc(F)c(Cl)c1`?
A: IC50 (Protein kinase C (PKC)): 30 µM; IC50 [2]: 40 µM; IC50 [3]: 15 µM; IC50 [4]: > 400 µM; solubility ([5]; read-out: Solubility): 64 µg/mL (≈ 150 µM); fraction unbound [6]: 0.15

Q: With `N#Cc1cnc2cnc(NCCN3CCOCC3)cc2c1Nc1ccc(C(F)(F)F)cc1` as the compound, how does the IC50 [1] read?
A: > 40 µM

Q: With `N#Cc1cnc2cnc(NCCCN3CCOCC3)cc2c1Nc1ccc(F)c(Cl)c1` as the compound, how does the IC50 [1] read?
A: 3.4 µM

Q: For `CN(Cc1ccccc1)c1cc2c(Nc3ccc(F)c(Cl)c3)c(C#N)cnc2cn1`, which IC50 [1] is on record?
A: > 40 µM

Q: For `N#Cc1cnc2cnc(NCCN3CCOCC3)cc2c1Nc1ccc(S(=O)(=O)c2ccccc2)cc1`, which IC50 [1] is on record?
A: > 40 µM

Q: With `Cc1c(Br)cccc1Nc1c(C#N)cnc2cnc(NCCN3CCOCC3)cc12` as the compound, how does the IC50 [1] read?
A: > 40 µM

Q: With `N#Cc1cnc2cnc(NC3CCCC3)cc2c1Nc1ccc(F)c(Cl)c1` as the compound, how does the IC50 [1] read?
A: > 40 µM

Q: Which IC50 (Protein kinase C (PKC)) does the source give for `N#Cc1cnc2cnc(NCCN3CCOCC3)cc2c1Nc1ccc(Sc2ccccc2)cc1` here?
A: > 400 µM

Q: What about the IC50 [2] of the same compound?
A: 3 µM

Q: And the IC50 [3]?
A: 0.96 µM

Q: And the IC50 [4]?
A: > 400 µM

Q: What about the solubility ([5]; read-out: Solubility) of the same compound?
A: 1 µg/mL (≈ 2.07 µM)

Q: And the fraction unbound [6]?
A: < 0.01

Q: For `N#Cc1cnc2cnc(NCc3ccccc3)cc2c1Nc1ccc(F)c(Cl)c1`, which IC50 [1] is on record?
A: 0.073 µM

Q: Which IC50 (Protein kinase C (PKC)) does the source give for `N#Cc1cnc2cnc(NCc3cccnc3)cc2c1Nc1ccc(F)c(Cl)c1` here?
A: > 400 µM

Q: And the IC50 [2]?
A: > 400 µM

Q: And the IC50 [3]?
A: > 40 µM

Q: And the IC50 [4]?
A: 110 µM

Q: And the solubility ([5]; read-out: Solubility)?
A: 2 µg/mL (≈ 4.94 µM)

Q: What about the fraction unbound [6] of the same compound?
A: 0.02

Q: For `C[C@H](Nc1cc2c(Nc3ccc(F)c(Cl)c3)c(C#N)cnc2cn1)c1ccccc1`, which IC50 [1] is on record?
A: 27 µM

Q: For `CN1CCN(CCCNc2cc3c(Nc4ccc(F)c(Cl)c4)c(C#N)cnc3cn2)CC1`, which IC50 [1] is on record?
A: 21 µM

Q: For `N#Cc1cnc2cnc(NCCN3CCOCC3)cc2c1Nc1ccc(Oc2ccccc2)cc1`, which IC50 (Protein kinase C (PKC)) is on record?
A: 200 µM

Q: What about the IC50 [2] of the same compound?
A: 90 µM

Q: What about the IC50 [1] of the same compound?
A: 0.38 µM

Q: And the IC50 [3]?
A: 0.8 µM

Q: What about the IC50 [4] of the same compound?
A: > 400 µM

Q: And the solubility ([5]; read-out: Solubility)?
A: 1 µg/mL (≈ 2.14 µM)

Q: What about the fraction unbound [6] of the same compound?
A: < 0.01

Q: For `N#Cc1cnc2cnc(NCCN3CCOCC3)cc2c1NCc1ccc(F)c(Cl)c1`, which IC50 [1] is on record?
A: > 40 µM

Q: Which IC50 (Protein kinase C (PKC)) does the source give for `N#Cc1cnc2cnc(NCCN3CCOCC3)cc2c1Nc1ccc(Cc2ccccc2)cc1` here?
A: > 400 µM

Q: And the IC50 (MAP kinase p38)?
A: > 400 µM

Q: What about the IC50 [2] of the same compound?
A: 4 µM

Q: What about the IC50 [1] of the same compound?
A: 0.002 µM

Q: And the IC50 [3]?
A: 0.63 µM

Q: And the IC50 [4]?
A: > 400 µM

Q: What about the solubility [5] of the same compound?
A: Insoluble

Q: What about the fraction unbound [6] of the same compound?
A: 0.01

Q: And the IC50 [7]?
A: 13.6 µM

Q: What about the IC50 [8] of the same compound?
A: 0.8 µM

Q: For `N#Cc1cnc2cnc(NCCCN3CCCC3)cc2c1Nc1ccc(F)c(Cl)c1`, which IC50 [1] is on record?
A: 3.57 µM

Source: ChEMBL document CHEMBL1141937, “Inhibition of Tpl2 kinase and TNF-alpha production with 1,7-naphthyridine-3-carbonitriles: synthesis and structure-activity relationships” (Bioorg Med Chem Lett, 2005)
